Experimental data as given in patent US20120053235A1, “Dihydromyricetin as an IKK-beta inhibitor used for treatment of arthritis, cancer and autoimmune conditions, and other diseases or disorders” (HONG KONG BAPTIST UNIVERSITY, priority 2010, published 2012).

System: ICR mice
Conditions: mouse, in vivo
Description: ICR (Imprinting Control Region) mice (both male and female) were purchased from the Laboratory Animal Services Center, the Chinese University of Hong Kong, Hong Kong. At the beginning of the study, one mouse was given orally with DMY at a dose of 2,000 mg/kg of mouse after fasting for 12 hours. The mouse had free access to water and after 2 hours, it was supplied with chow diet. Signs of toxicosis, onset of signs, and time to death of the mouse were monitored and recorded. Results of the initial exposure were used to select the subsequent dose of DMY, using the up-and-down method to estimate the lethal dose. […] If all the mice stayed alive, a higher dose of DMY was given to another three mice. All the mice were monitored continuously for two hours, every half hour for the next 5 hours, and at least every 10 hours until the 72nd hour of the study. Mice that died were immediately undergone autopsy. Mice remaining alive for 14 days upon study were sacrificed with an overdose pentobarbital.

O=C1c2c(O)cc(O)cc2O[C@H](c2cc(O)c(O)c(O)c2)[C@H]1O [DMY, dihydromyricetin]
acute oral LD50: greater than 5,000 mg/kg body weight
